# Reference: patent publication US20200148646A1, “6-S[…] 7-S[…] ANALOGS AND THE USE THEREOF” (Purdue Pharma, L.P., priority 2013, published 2020)
# How the values were obtained:
# μ-opioid receptor [1] = biological target: T1, μ-opioid receptor (Homo sapiens, UniProt P35372); experiment: μ-opioid receptor [35S]GTPγS functional assay, HEK-293 or CHO cells; assay type: biochemical; settings: for Emax: HEK-293 or CHO cells, relative to DAMGO
# How it was run: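 Agonist-stimulated [35S]GTPγS binding to recombinant μ-receptor membranes (HEK-293 or CHO) with 0.20 nM [35S]GTPγS, […] and saponin, pH 7.4, 30 min at about 25 °C, then filtration and scintillation counting. EC50 from sigmoidal fits; Emax relative to DAMGO.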
# human κ opioid receptor [2] = biological target: T2, human κ opioid receptor (Homo sapiens, UniProt P41145); experiment: κ-opioid receptor radioligand ([3H]-U69,593) dose-displacement binding assay, HEK-293 or CHO cells; set-up: expressed in transfected cells; host or cells: HEK-293 cells (in-house prep)
# Procedure: Membranes from recombinant HEK-293 cells expressing the human K opioid receptor (cloned in house) were prepared by lysing cells in ice cold hypotonic buffer (2.5 mM MgCl2, 50 mM HEPES, pH 7.4) (10 mL/10 cm dish) followed by homogenization with a tissue grinder/Teflon pestle. Membranes were collected by centrifugation at 30,000×g for 15 min at 4° C. and pellets were resuspended in hypotonic buffer to a final concentration of 1-3 mg/mL. Protein concentrations were determined using the BioRad protein assay reagent with bovine serum albumen as standard. Aliquots of κ receptor membranes were stored at −80° C.
# Radioligand dose displacement assays used 0.4 nM [^3H]-U69,593 (GE Healthcare, Piscataway, N.J.; 40 Ci/mmole) with 15 μg membrane protein (recombinant K opioid receptor expressed in HEK 293 cells; in-house prep) in a final volume of 200 μl binding buffer (5% DMSO, 50 mM Trizma base, pH 7.4). Non-specific binding was determined in the presence of 10 μM unlabeled naloxone or U69,593. All reactions were performed in 96-well polypropylene plates for 1 hr at a temperature of about 25° C. Binding reactions were terminated by rapid filtration onto 96-well Unifilter GF/C filter plates (Perkin Elmer, Shelton, Conn.) presoaked in 0.5% polyethylenimine (Sigma). Harvesting was performed using a 96-well tissue harvester (Perkin Elmer, Shelton, Conn.) followed by five filtration washes with 200 μl ice-cold binding buffer. Filter plates were subsequently dried at 50° C. for 1-2 hours. Fifty μl/well scintillation cocktail (Perkin Elmer, Shelton, Conn.) was added and plates were counted in a Packard Top-Count for 1 min/well.
# (§1) In TABLE 1, binding affinity of certain Compounds of the Invention to the μ-, and κ-opioid receptors in HEK-293 or CHO cells was determined as described above.
# μ-opioid receptor [3] = biological target: T1, μ-opioid receptor; experiment: μ-opioid receptor radioligand ([3H]-diprenorphine) dose-displacement binding assay, HEK-293 or CHO cells
# Procedure: Radioligand dose-displacement binding assays for μ-opioid receptors used 0.3 nM [^3H]-diprenorphine (Perkin Elmer, Shelton, Conn.), with […] membrane protein/well in a final volume of 500 μl binding buffer (10 mM MgCl2, 1 mM EDTA, 5% DMSO, 50 mM HEPES, pH 7.4). Reactions were carried out in the absence or presence of increasing concentrations of unlabeled naloxone. All reactions were conducted in 96-deep well polypropylene plates for 2 hr at room temperature. Binding reactions were terminated by rapid filtration onto 96-well Unifilter GF/C filter plates (Perkin Elmer, Shelton, Conn.), presoaked in 0.5% polyethylenimine using a 96-well tissue harvester (Perkin Elmer, Shelton, Conn.) followed by performing three filtration washes with 500 μl of ice-cold binding buffer. Filter plates were subsequently dried at 50° C. for 2-3 hours. BetaScint scintillation cocktail (Perkin Elmer, Shelton, Conn.) was added (50 l/well), and plates were counted using a Packard Top-Count for 1 min/well. The data were analyzed using the one-site competition curve fitting functions in GraphPad PRISM™ v. 3.0 or higher (San Diego, Calif.), or an in-house function for one-site competition curve-fitting.
# as §1
# μ-opioid receptor [4] = biological target: T1, μ-opioid receptor; experiment: μ-opioid receptor [35S]GTPγS functional assay, U-2 OS cells; assay type: biochemical; set-up: host or cells: U-2 OS cells; settings: for Emax: U2-OS cells, relative to DAMGO
# How it was run: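 U-2 OS membranes expressing recombinant human μ-receptor (0.026 mg/mL) were incubated with compound, […], saponin and [35S]GTPγS 0.20 nM in HEPES/NaCl/MgCl2 buffer pH 7.4 for 30 min at about 25° C. Filter-bound radioactivity gave sigmoidal fits for EC50; Emax is relative to DAMGO.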
# human κ opioid receptor [5] = biological target: T2, human κ opioid receptor; experiment: κ-opioid receptor [35S]GTPγS functional assay, U-2 OS cells; assay type: biochemical; set-up: expressed in transfected cells; host or cells: U-2 OS cells (in-house membranes); settings: for Emax: U2-OS cells, relative to U69,593
# How it was run: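 Membranes from U-2 OS cells expressing human κ receptor (0.026 μg/μl protein) were incubated with agonist, 10 μg/mL saponin, 3 μM GDP and 0.20 nM [35S]GTPγS in pH 7.4 HEPES buffer for 30 min at about 25 °C. Bound radioactivity was measured after filtration. EC50 was taken at half-maximal response; Emax is relative to U69,593.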
# T2 sequence (P41145 whole entry): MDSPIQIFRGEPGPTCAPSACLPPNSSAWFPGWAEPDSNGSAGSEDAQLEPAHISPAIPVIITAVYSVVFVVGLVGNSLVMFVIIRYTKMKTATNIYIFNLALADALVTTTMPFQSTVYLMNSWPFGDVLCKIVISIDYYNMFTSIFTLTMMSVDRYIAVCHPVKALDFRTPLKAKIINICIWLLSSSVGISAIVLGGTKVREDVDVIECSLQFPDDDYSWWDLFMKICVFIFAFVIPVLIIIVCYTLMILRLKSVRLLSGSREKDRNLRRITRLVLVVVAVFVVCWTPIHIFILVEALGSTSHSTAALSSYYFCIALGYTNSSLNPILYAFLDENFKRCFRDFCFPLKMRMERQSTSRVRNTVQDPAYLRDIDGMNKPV
# T1 sequence (P35372 whole entry, species assumed): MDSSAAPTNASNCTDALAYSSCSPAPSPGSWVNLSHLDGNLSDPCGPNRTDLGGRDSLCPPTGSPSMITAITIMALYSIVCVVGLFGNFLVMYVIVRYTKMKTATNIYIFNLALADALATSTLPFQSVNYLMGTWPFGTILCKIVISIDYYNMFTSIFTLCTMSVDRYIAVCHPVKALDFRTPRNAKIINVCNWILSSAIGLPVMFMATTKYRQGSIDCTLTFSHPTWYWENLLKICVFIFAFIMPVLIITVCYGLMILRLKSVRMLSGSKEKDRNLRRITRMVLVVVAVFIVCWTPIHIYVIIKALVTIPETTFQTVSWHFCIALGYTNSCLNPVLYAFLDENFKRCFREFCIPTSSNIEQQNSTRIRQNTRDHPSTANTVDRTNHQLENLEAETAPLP
SMILES,EC50 (μ-opioid receptor [1]) [nM],Emax (μ-opioid receptor [1]) [%],Ki (human κ opioid receptor [2]) [nM],Ki (μ-opioid receptor [3]) [nM],EC50 (μ-opioid receptor [4]) [nM],Emax (μ-opioid receptor [4]) [%],EC50 (human κ opioid receptor [5]) [nM],Emax (human κ opioid receptor [5]) [%]
"COc1ccc2c(c1)[C@]13CCN(CC4CC4)[C@H](C2)[C@]1(O)C[C@H](C)[C@H](O)C3 [Compound 3, (4bR,6R,7S,8aS,9R)-11-(cyclopropylmethyl)-3-methoxy-7-methyl-5,6,7,8,9,10-hexahydro-8aH-9,4b-(epiminoethano)phenanthrene-6,8a-diol]",2750,58.7 ± 4.18,3010 ± 339,6140 ± 963,–,–,–,–
"COc1ccc2c(c1)[C@]13CCN(CC4CC4)[C@H](C2)[C@]1(O)C[C@H](CO)[C@H](O)C3 [Compound 7, (4bR,6R,7R,8aS,9R)-11-(cyclopropylmethyl)-7-(hydroxymethyl)-3-methoxy-5,6,7,8,9,10-hexahydro-8aH-9,4b-(epiminoethano)phenanthrene-6,8a-diol]",4910,53.7 ± 4.37,7300 ± 1640,10800 ± 843,–,–,–,–
"CN(C)[C@H]1CC[C@@]2(O)[C@H]3Cc4ccc(O)cc4[C@@]2(CCN3CC2CC2)C1 [Compound 10, (4bR,6S,8aS,9R)-11-(cyclopropylmethyl)-6-(dimethylamino)-5,6,7,8,9,10-hexahydro-8aH-9,4b-(epiminoethano)phenanthrene-3,8a-diol]",> 20000,2.5,0.057 ± 0.01,3.84 ± 1.36,4.69 ± 0.74,33 ± 1.15,0.79 ± 0.07,101 ± 6.23
"NCCN[C@@H]1CC[C@@]2(O)[C@H]3Cc4ccc(O)cc4[C@@]2(CCN3CC2CC2)C1 [Compound 11, (4bR,6R,8aS,9R)-6-((2-aminoethyl)amino)-11-(cyclopropylmethyl)-5,6,7,8,9,10-hexahydro-8aH-9,4b-(epiminoethano)phenanthrene-3,8a-diol]",> 20000,6.33 ± 1.67,0.29 ± 0.049,71 ± 28.1,37.9 ± 12,70 ± 8.08,2.75 ± 0.48,119 ± 0.58
"N=C(N)NCCN[C@@H]1CC[C@@]2(O)[C@H]3Cc4ccc(O)cc4[C@@]2(CCN3CC2CC2)C1 [Compound 12, 1-(2-(((4bR,6R,8aS,9R)-11-(cyclopropylmethyl)-3,8a-dihydroxy-6,7,8,8a,9,10-hexahydro-5H-9,4b-(epiminoethano)phenanthren-6-yl)amino)ethyl)guanidine]",> 20000,5.33 ± 0.88,0.29 ± 0.13,53.2 ± 8.9,32.7 ± 2.82,64.7 ± 5.17,5.06 ± 0.29,105 ± 1.76
"NCCCN[C@@H]1CC[C@@]2(O)[C@H]3Cc4ccc(O)cc4[C@@]2(CCN3CC2CC2)C1 [Compound 13, (4bR,6R,8aS,9R)-6-((3-aminopropyl)amino)-11-(cyclopropylmethyl)-5,6,7,8,9,10-hexahydro-8aH-9,4b-(epiminoethano)phenanthrene-3,8a-diol]",–,–,0.51 ± 0.073,80 ± 27.1,38.9 ± 4.9,66.3 ± 5.78,2.13 ± 0.41,117 ± 1.86
"NCCCCN[C@@H]1CC[C@@]2(O)[C@H]3Cc4ccc(O)cc4[C@@]2(CCN3CC2CC2)C1 [Compound 14, (4bR,6R,8aS,9R)-6-((4-aminobutyl)amino)-11-(cyclopropylmethyl)-5,6,7,8,9,10-hexahydro-8aH-9,4b-(epiminoethano)phenanthrene-3,8a-diol]",> 20000,8.67 ± 2.96,0.56 ± 0.052,124 ± 43.5,85.6 ± 3.31,74.3 ± 2.19,5.47 ± 0.3,112 ± 5.13
"N=C(N)NCCCN[C@@H]1CC[C@@]2(O)[C@H]3Cc4ccc(O)cc4[C@@]2(CCN3CC2CC2)C1 [Compound 15, 1-(3-(((4bR,6R,8aS,9R)-11-(cyclopropylmethyl)-3,8a-dihydroxy-6,7,8,8a,9,10-hexahydro-5H-9,4b-(epiminoethano)phenanthren-6-yl)amino)propyl)guanidine]",1110 ± 447,11.3 ± 0.33,0.53 ± 0.13,54.1 ± 10.1,41.5 ± 8.55,76.3 ± 3.38,12.8 ± 1.3,108 ± 2.65
"N=C(N)NCCCCN[C@@H]1CC[C@@]2(O)[C@H]3Cc4ccc(O)cc4[C@@]2(CCN3CC2CC2)C1 [Compound 16, 1-(4-(((4bR,6R,8aS,9R)-11-(cyclopropylmethyl)-3,8a-dihydroxy-6,7,8,8a,9,10-hexahydro-5H-9,4b-(epiminoethano)phenanthren-6-yl)amino)butyl)guanidine]",811 ± 442,9 ± 0.58,0.48 ± 0.055,70.5 ± 13.8,53.7 ± 11.5,78 ± 3.61,15 ± 1.15,105 ± 2.89
"N=C(N)NCC(=O)N[C@@H]1CC[C@@]2(O)[C@H]3Cc4ccc(O)cc4[C@@]2(CCN3CC2CC2)C1 [Compound 20, N-((4bR,6R,8aS,9R)-11-(cyclopropylmethyl)-3,8a-dihydroxy-6,7,8,8a,9,10-hexahydro-5H-9,4b-(epiminoethano)phenanthren-6-yl)-2-guanidinoacetamide]",> 20000,7.33 ± 0.88,3.23 ± 0.7,449 ± 53.5,394 ± 57.8,62.7 ± 4.26,62.3 ± 2.37,111 ± 2.4
"N=C(N)NCCC(=O)N[C@@H]1CC[C@@]2(O)[C@H]3Cc4ccc(O)cc4[C@@]2(CCN3CC2CC2)C1 [Compound 21, N-((4bR,6R,8aS,9R)-11-(cyclopropylmethyl)-3,8a-dihydroxy-6,7,8,8a,9,10-hexahydro-5H-9,4b-(epiminoethano)phenanthren-6-yl)-3-guanidinopropanamide]",–,–,4.61 ± 1.05,1010 ± 221,–,–,120 ± 2.94,105.3 ± 0.88
"N=C(N)NCCCC(=O)N[C@@H]1CC[C@@]2(O)[C@H]3Cc4ccc(O)cc4[C@@]2(CCN3CC2CC2)C1 [Compound 22, N-((4bR,6R,8aS,9R)-11-(cyclopropylmethyl)-3,8a-dihydroxy-6,7,8,8a,9,10-hexahydro-5H-9,4b-(epiminoethano)phenanthren-6-yl)-4-guanidinobutanamide]",> 20000,5 ± 1.53,1.85 ± 0.22,251 ± 29.4,247 ± 25.5,60 ± 5.51,27.1 ± 4.18,107 ± 2.33
"N=C(N)Nc1ccc(N[C@@H]2CC[C@@]3(O)[C@H]4Cc5ccc(O)cc5[C@@]3(CCN4CC3CC3)C2)cc1 [Compound 24, 1-(4-(((4bR,6R,8aS,9R)-11-(cyclopropylmethyl)-3,8a-dihydroxy-6,7,8,8a,9,10-hexahydro-5H-9,4b-(epiminoethano)phenanthren-6-yl)amino)phenyl)guanidine]",> 20000,4.33 ± 1.45,0.24 ± 0.021,8.42 ± 2.88,8.14 ± 0.94,55.3 ± 2.91,2.91 ± 0.18,104 ± 4.04
